Laboratory results: patent US9426950B2, “Production of Deschampsia antartica in bioreactors” (priority 2012, dated 2016)

Key:
D. antarctica explants [1] = experiment: Effect of growth regulators on D. antarctica's morphogenic response and biomass production in bioreactors (SIT); assay type: in vivo, Deschampsia antarctica; conditions: for reproduction rate / organogenic response: SIT method (FIG. 7); for survival of explants compared with the control treatment: growth regulators in the culture medium, bioreactors (FIG. 6); for type of morphogenic response (roots / shoots): AIB with BAP or alone, BAP alone or ratio favoring BAP; for biomass production: treatments supplemented with growth regulators (FIG. 9)
Source text: In order to determine the appropriate composition of growth regulators for explant propagation and to establish the differences in the physical state of the liquid culture medium compared to the semisolid medium, a comparative study was done on the effect of growth regulators on the culture medium using the SIT method and the conventional propagation method, SSS. To determine the growth regulators' effect on D. antarctica's morphogenic response and biomass formation, a study was done on the effect of combining the cytokinin 6-benzylaminopurine (6-BAP) (0.0; 0.5; 1.0; and 3.0 mgL-1) with the auxin indolbutyric acid (AIB) (0.0; 0.1; 0.25; and 0.5 mgL^−1). Likewise, a study was done of the effect of a set concentration of gibberellic acid (3 mgL-1) combined with the auxins and cytokinins and their isolated effect in the culture medium. Gibberellic acid is associated with the elongation of tissues, and it could play a significant role in biomass growth.
For each bioreactor, 50 to 60 explants with the phenotype characteristics indicated in the osmotic agent test were used in 1000 ml of nutritive medium for each condition, keeping an initial treatment weight of 2 grams. For the SSS method, 25 explants were used in Petri dishes with 40 ml of a medium gelled with agar (Gelzan′) at a rate of 2.5 gL^−1.
A 12-hour immersion frequency was used, with immersion times of 3 minutes and aeration times of 5 minutes.
For this test, the total weight of inoculated biomass was adjusted at 2.0 g per bioreactor. Therefore, the number of plants per bioreactor varied, and the distribution of weight and size during inoculation was random. The experimental unit was the explant.
The effect of the growth regulators was evaluated with the following variables: Increase in fresh weight (FW) per treatment, increase in fresh weight/explant, reproduction rate, survival of explants, and degree of oxidation; all of the same criteria used in the test with osmotic agents.
A sample of 25 explants was taken for each treatment in order to measure the different variables.

D. antarctica explants [2] = experiment: Effect of osmoregulating agents on D. antarctica explants cultivated in temporary immersion bioreactors; assay type: in vivo; conditions: for fresh weight: glucose 5 gL−1 and 20 gL−1, sodium chloride 5 gL−1 (FIG. 5); for degree of oxidation (scale of Table 1): in vivo
Source text: The Deschampsia antarctica plants were reproduced in bioreactors with a liquid culture medium. The nutritive growth conditions were formulated using the inorganic salts proposed by (Murashige, 1973) (MS), supplemented with saccharose 30 gL^−1. In order to determine the conditions needed to obtain high growth and morphophysiological development rates for the tissues, an evaluation was done of the immersion frequency conditions and the addition of osmotic and growth regulating agents.
The regulation of the culture medium's hydric potential determines the quality of the morphogenic response of the plants being cultivated in vitro, especially in systems using liquid culture media (Hua et at, 2010; Stanly et al., 2010). The experiment consisted of evaluating the effect of osmoregulating agents at different concentrations [mannitol (10 and 20 gL-1), glucose (5 and 20 gL-1), polyethylene glycol (5 and 10 gL^−1), and NaCl (5, 10, and 20 gL-1)] on the morphogenic response and biomass production of D. antarctica.
In each bioreactor, 100 plants from the semisolid culture (SSS) that were more than 2 cm tall, with well-developed, expanded leaves, were inoculated in triplicate. The dead leaves and oxidized tissue that grows around the crown of the plants were removed. The bioreactors' initial volume was adjusted to 1000 ml per cultivation jar. A 12-hour immersion frequency was used, with an immersion time of 300 seconds and an aeration time of 60 minutes.
The average initial weight of the explants in each treatment was taken. The repetitions were distributed randomly in the culture trays.
The effect of the osmoregulators was evaluated with the following variables: Increase in fresh weight (FW) per treatment, increase in fresh weight per explant, multiplication rate, explant survival rate, and degree of oxidation.
To calculate survival, live explants were assigned a value of 1, while dead explants were assigned a value of 0. The data was entered into a double-entry matrix where the osmoregulator-type factor is compared to the survival variable. A scale of the explants' damage from phenolization was developed to calculate the degree of oxidation, and is described in Table 1.
The degree of oxidation was calculated using the Townsend and Neuberger formula (1943), which considers the frequency and intensity with which the explant damage occurs, using the equation:
[formula] Where: • P=weighted degree of severity of oxidation • n=number of explants for each category in the scale • v=numerical value of each category • CM=largest category • N=total number of explants in the sample
The percentage of explants oxidized in treatment was also calculated, using the equation:
[formula] Where: • % O=percentage of explants oxidized in each treatment • EO=number of oxidized explants in the sample • ET=total number of explants evaluated in the sample
To determine the average increase in fresh weight (IFW) in each treatment, the initial weight of the inoculated explants in each bioreactor was taken (including an experimental unit) and then averaged. The fresh weight data was collected at the end of each repetition in each treatment. The increase in fresh weight was calculated using the equation: IFW=FWf−FWo Equation 3 Where: • IFW=average fresh weight increase in each treatment • FWf=average final fresh weight of the biomass in each treatment • FWo=average initial fresh weight of the biomass in each treatment
To determine the average fresh weight increase per explant (IFWe) for each treatment, each explant was measured at the beginning and end of the test for each repetition, and the averages were calculated. The fresh weight increase was calculated using the equation: IFWe=FWef−FWeo Equation 4 Where: • IFWe=average fresh weight increase per explant • FWef=average final fresh weight of the biomass in each bioreactor • FWeo=average initial fresh weight of the biomass in each bioreactor. […]

D. antarctica explants [3] = experiment: as above; assay type: in vivo; conditions: glucose 5 gL−1; mannitol 5 gL−1; PEG 5 gL−1 and 20 gL−1 (FIG. 4)

SMILES | reproduction rate / organogenic response (D. antarctica explants [1]) | survival of explants compared with the control treatment (D. antarctica explants [1]) | fresh weight (D. antarctica explants [2]) | degree of oxidation (scale of Table 1) (D. antarctica explants [2]) | reproduction rate (D. antarctica explants [3]) | type of morphogenic response (roots / shoots) (D. antarctica explants [1]) | biomass production (D. antarctica explants [1]) | also measured
C=C1C[C@]23C[C@@]1(O)CC[C@H]2[C@@]12C=C[C@H](O)[C@@](C)(C(=O)O1)[C@H]2[C@@H]3C(=O)O [GA3, gibberellic acid] | significantly reduced the reproduction rate | significantly lower than the control treatment |  |  |  |  |  | 
[Cl-].[Na+] [sodium chloride] |  |  | increased significantly |  |  |  |  | decrease of fresh weight (D. antarctica explants [2]; increased concentration of sodium chloride (FIG. 5)): 60%; survival of the explants (D. antarctica explants [2]; three concentrations of sodium chloride studied (5, 10, 20 gL-1)): significantly affected the survival of the explants
OC[C@@H](O)[C@@H](O)[C@H](O)[C@H](O)CO [mannitol] |  |  |  | degree 1 | statistically different from the control treatment |  |  | 
O=C(O)CCCc1c[nH]c2ccccc12 [AIB, indolbutyric acid] | did not have a significant effect on the reproduction rate | Neither the addition of AIB or BAP, nor the combination of these growth regulators, significantly increased the survival |  |  |  | induced root formation | increased significantly | 
c1ccc(CNc2ncnc3nc[nH]c23)cc1 [BAP, 6-benzylaminopurine] | sufficient to induce efficient organogenic responses | Neither the addition of AIB or BAP, nor the combination of these growth regulators, significantly increased the survival |  |  |  | induced only shoot formation or the development of aerial biomass | increased significantly | 
O=C[C@H](O)[C@@H](O)[C@H](O)[C@H](O)CO [glucose] |  |  | increased significantly | degree 1 | greatest |  |  | survival rate (D. antarctica explants [2]; glucose at 5 gL−1, temporary immersion bioreactors): 100%; reduction of the explants' survival rate (D. antarctica explants [2]; glucose concentration increased to 20 gL-1): up to 50%; explants' growth (D. antarctica explants [2]; increased concentrations of glucose): did not significantly affect the explants' growth
